Strand notation (5' to 3'): a small letter for the sugar, then the base; units joined by * are phosphorothioate-linked, units joined directly phosphodiester-linked; [ ] holds rarer units or linkages, { } end groups; capitals alone tell only the bases. e = 2'-O-(2-methoxyethyl) (MOE); k = constrained ethyl (cEt); [5mC] = 5-methylcytosine; d = 2'-deoxy (DNA); m = 2'-O-methyl
Tested on: Yap1 mRNA
Test: Antisense inhibition of human Yap1 in SNU-449 cells by modified oligonucleotides, single dose (Example 5, RTS36584)
Assay type: cell-based
Outline: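 SNU-449 cells (10,000/well) took up 2,000 nM oligonucleotide by free uptake for about 48 h. Yap1 mRNA was measured by qRT-PCR with primer probe set RTS36584 and normalised to RIBOGREEN total RNA. Values are % of untreated control; asterisked oligos target the amplicon region.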

[1] = Table 49, Yap1 mRNA level relative to untreated control, modified oligonucleotides targeting SEQ ID NO.: 1 and 2
[2] = Table 40 (separate experiment), SNU-449 cells, 10,000 cells per well, free uptake, 2,000 nM oligonucleotide, approx. 48 hours, RTS36584, normalized to RIBOGREEN, Yap1 mRNA relative to untreated control
[3] = Table 43 experiment, SNU-449 cells, 10,000 cells per well, free uptake, 2,000 nM, approximately 48 hours, RTS36584, Yap1 mRNA normalized to RIBOGREEN, relative to untreated control cells
[4] = Table 48, Yap1 mRNA level relative to untreated control, modified oligonucleotides targeting SEQ ID NO.: 1 and 2
[5] = Table 45, Yap1 mRNA as percent of untreated control, SNU-449 cells, single dose
[6] = Table 41, SNU-449 cells, 10,000 cells per well, free uptake, 2,000 nM modified oligonucleotide, approximately 48 hours, RTS36584, normalized to RIBOGREEN, Yap1 mRNA relative to untreated control cells
[7] = Table 50, Yap1 mRNA remaining as percent of untreated control (UT), SNU-449 cells, single dose
[8] = Table 44 experiment, SNU-449 cells, 10,000 cells per well, free uptake, 2,000 nM, approximately 48 hours, RTS36584, Yap1 mRNA normalized to RIBOGREEN, relative to untreated control cells
[9] = Table 46, Yap1 mRNA as percent of untreated control, SNU-449 cells, single dose
[10] = Table 52, Yap1 mRNA, modified oligonucleotides targeting SEQ ID NO: 1 and 2

1198568 (antisense kA*k[5mC]*kT*dT*dT*dT*dA*d[5mC]*dA*dT*dT*dA*kG*kG*kA*eA) [Compound 1198568]
YAP1 (% UT) [1]: 31 % UT

1198716 (kA*eA*kT*dT*dG*dT*d[5mC]*dT*d[5mC]*dA*dT*dG*e[5mC]*e[5mC]*kT*kT; antisense) [Compound 1198716]
YAP1 (% UTC) [2]: 27 % UTC

1198281 (kG*kA*d[5mC]*dT*dA*dA*dG*dT*dA*dA*dG*eG*eT*eT*kT*k[5mC]; antisense) [Compound 1198281]
YAP1 (% UTC) [3]: 71 % UTC

1198343 (kA*kT*kT*dG*d[5mC]*dA*dA*dT*d[5mC]*dT*dG*dT*k[5mC]*eT*kG*eA; antisense) [Compound 1198343]
YAP1 (% UT) [4]: 39 % UT

1198920 (kA*kA*dG*d[5mC]*dA*d[5mC]*dT*dT*dT*dT*dA*k[5mC]*dA*kT*dT*kA; antisense) [Compound 1198920]
YAP1 (% UTC) [5]: 54 % UTC

1198639 (kT*kA*dG*dA*dG*dT*dA*dT*dG*dT*dG*dG*k[5mC]*eA*kA*eT; antisense) [Compound 1198639]
YAP1 (% UTC) [6]: 32 % UTC

1197288 (kT*k[5mC]*kT*dA*mU*dA*dT*dT*dA*dG*dA*dG*dT*kA*kT*kG; antisense) [Compound 1197288]
YAP1 (% UT) [7]: 94 % UT

1198474 (antisense kT*kA*dT*dA*dA*d[5mC]*dT*dG*dG*dG*d[5mC]*eA*kA*eA*kT*eT) [Compound 1198474]
YAP1 (% UTC) [8]: 68 % UTC

1198461 (antisense kG*kG*dA*dA*dA*dT*dT*dG*dT*d[5mC]*dT*e[5mC]*kA*eT*kG*e[5mC]) [Compound 1198461]
YAP1 (% UTC) [3]: 24 % UTC

1198207 (kA*kG*dT*dA*dT*dG*dT*dG*dG*d[5mC]*dA*eA*eT*eA*kA*kT; antisense) [Compound 1198207]
YAP1 (% UTC) (Table 42 (separate experiment), SNU-449 cells, 10,000 cells per well, free uptake, 2,000 nM modified oligonucleotide, approximately 48 hours, RTS36584, normalized to RIBOGREEN, Yap1 mRNA relative to untreated control cells): 91 % UTC

1198966 (kA*kA*d[5mC]*dT*dT*dT*dA*dA*dA*dG*dT*kG*dT*kA*dT*kG) [Compound 1198966]
YAP1 (% UT) [9]: 78 % UT

1198457 (kA*kT*dT*dG*dT*d[5mC]*dT*d[5mC]*dA*dT*dG*e[5mC]*k[5mC]*eT*kT*eA) [Compound 1198457]
YAP1 (% UTC) [3]: 18 % UTC

1198724 (kA*eG*kA*dG*dT*dA*dT*dG*dT*dG*dG*d[5mC]*eA*eA*kT*kA; antisense) [Compound 1198724]
YAP1 (% UTC) [2]: 16 % UTC

1198255 (k[5mC]*kA*dA*d[5mC]*dT*d[5mC]*dT*dT*dA*dT*dA*eT*eG*eG*kT*kT; antisense) [Compound 1198255]
YAP1 (% UTC) [3]: 84 % UTC

1198289 (kG*kG*kA*dA*dA*dT*dT*dG*dT*d[5mC]*dT*d[5mC]*kA*eT*kG*e[5mC]; antisense) [Compound 1198289]
YAP1 (% UT) [4]: 12 % UT

1198778 (kA*eT*kA*dT*dT*dG*d[5mC]*dA*dA*dT*d[5mC]*dT*eG*eT*k[5mC]*kT; antisense) [Compound 1198778]
YAP1 (% UTC) [2]: 55 % UTC

1198626 (kA*kG*kA*d[5mC]*dT*dA*dA*dG*dT*dA*dA*dG*kG*kT*kT*eT; antisense) [Compound 1198626]
YAP1 (% UT) [7]: 99 % UT

1198586 (antisense kA*kT*kT*dT*dA*dG*dG*dA*dT*dG*d[5mC]*dA*kT*kG*kG*eT) [Compound 1198586]
YAP1 (% UT) [7]: 96 % UT

1198895 (kG*kG*dA*dA*dA*dT*dT*dG*dT*d[5mC]*dT*k[5mC]*dA*kT*dG*k[5mC]; antisense) [Compound 1198895]
YAP1 (% UTC) [5]: 22 % UTC

1198480 (antisense kT*kT*dT*dT*dA*d[5mC]*dA*dT*dT*dA*dG*eG*kA*eA*k[5mC]*eA) [Compound 1198480]
YAP1 (% UTC) [3]: 75 % UTC

1009325 (kA*kG*kA*dG*dT*dA*dT*dG*dT*dG*dG*d[5mC]*dA*kA*kT*kA; antisense) [Compound 1009325]
YAP1 (% UT) (Yap1 mRNA, percent of untreated control, modified oligonucleotides targeting SEQ ID NO: 1 and 2, Table 47): 16 % UT

1198487 (antisense kT*kT*dA*dA*dG*d[5mC]*dA*d[5mC]*dT*dT*dT*eT*kA*e[5mC]*kA*eT) [Compound 1198487]
YAP1 (% UTC) [8]: 62 % UTC

1198883 (kA*kA*dG*dT*dA*dA*dG*dG*dT*dT*dT*k[5mC]*e[5mC]*k[5mC]*eA*kG; antisense) [Compound 1198883]
YAP1 (% UT) [9]: 47 % UT

1200836 (kT*k[5mC]*kA*dG*dA*mU*dT*dT*dA*dG*dG*dA*dT*kG*k[5mC]*kA; antisense) [Compound 1200836]
YAP1 (% UT) [10]: 72 % UT

1197235 (antisense kA*kT*kT*dA*mG*dA*dG*dT*dA*dT*dG*dT*dG*kG*k[5mC]*kA) [Compound 1197235]
YAP1 (% UT) [7]: 16 % UT

1198606 (antisense kT*kG*kT*dA*dA*dT*dA*dT*dT*dG*d[5mC]*dA*kA*kT*k[5mC]*eT) [Compound 1198606]
YAP1 (% UT) [7]: 25 % UT

1198528 (kT*kA*dA*dA*dG*dT*dG*dT*dA*dT*dG*eT*k[5mC]*eA*kG*eA; antisense) [Compound 1198528]
YAP1 (% UTC) [8]: 14 % UTC

1198798 (antisense kT*eA*kA*dG*dT*dA*dA*dG*dG*dT*dT*dT*e[5mC]*e[5mC]*k[5mC]*kA) [Compound 1198798]
YAP1 (% UTC) [2]: 38 % UTC

1200848 (kA*kT*kA*dT*dT*mG*d[5mC]*dA*dA*dT*d[5mC]*dT*dG*kT*k[5mC]*kT; antisense) [Compound 1200848]
YAP1 (% UT) [10]: 58 % UT

1198611 (antisense kA*kG*kT*dG*dT*dA*dT*dG*dT*d[5mC]*dA*dG*kA*kA*kG*eA) [Compound 1198611]
YAP1 (% UT) [7]: 7 % UT

1198759 (kA*eG*kG*dA*dT*dG*d[5mC]*dA*dT*dG*dG*dT*eT*eT*kT*kT; antisense) [Compound 1198759]
YAP1 (% UTC) [2]: 27 % UTC

1197219 (antisense kA*kA*k[5mC]*dT*dT*dT*dA*dA*dA*dG*dT*dG*dT*kA*kT*kG) [Compound 1197219]
YAP1 (% UT) [4]: 71 % UT

1198835 (kT*kT*dA*dA*dG*d[5mC]*dA*d[5mC]*dT*dT*dT*kT*eA*k[5mC]*eA*kT; antisense) [Compound 1198835]
YAP1 (% UT) [9]: 85 % UT

1198374 (kG*dA*dA*dA*dT*dT*dG*dT*d[5mC]*dT*d[5mC]*kA*eT*kG*e[5mC]*k[5mC]; antisense) [Compound 1198374]
YAP1 (% UTC) (Table 39, SNU-449 cells, 10,000 cells per well, free uptake, 2,000 nM oligonucleotide, approx. 48 hours, RTS36584, normalized to RIBOGREEN, Yap1 mRNA relative to untreated control): 24 % UTC

1198300 (kT*kA*kT*dA*dT*dT*dA*dG*dA*dG*dT*dA*kT*eG*kT*eG; antisense) [Compound 1198300]
YAP1 (% UT) [4]: 60 % UT

1198727 (kA*eT*kT*dA*dG*dA*dG*dT*dA*dT*dG*dT*eG*eG*k[5mC]*kA; antisense) [Compound 1198727]
YAP1 (% UTC) [2]: 19 % UTC

1198323 (kA*kG*kT*dG*d[5mC]*dT*dT*dT*dG*dG*dA*dA*kG*eA*kT*e[5mC]; antisense) [Compound 1198323]
YAP1 (% UT) [4]: 32 % UT

1198247 (kA*kT*dT*d[5mC]*dA*dG*dA*dT*dT*dT*dA*eG*eG*eA*kT*kG; antisense) [Compound 1198247]
YAP1 (% UTC) [3]: 99 % UTC

1198322 (kG*kT*kG*d[5mC]*dT*dT*dT*dG*dG*dA*dA*dG*kA*eT*k[5mC]*eT; antisense) [Compound 1198322]
YAP1 (% UT) [4]: 48 % UT

1198292 (kA*kT*kA*dT*dG*dG*dA*dA*dA*dT*dT*dG*kT*e[5mC]*kT*e[5mC]; antisense) [Compound 1198292]
YAP1 (% UT) [4]: 58 % UT

1198637 (kA*kG*dT*dA*dT*dG*dT*dG*dG*d[5mC]*dA*dA*kT*eA*kA*eT; antisense) [Compound 1198637]
YAP1 (% UTC) [6]: 64 % UTC

1198358 (kT*kT*kT*dA*dA*dA*dG*dT*dG*dT*dA*dT*kG*eT*k[5mC]*eA; antisense) [Compound 1198358]
YAP1 (% UT) [1]: 15 % UT

1198317 (kT*kT*kG*dG*dA*dA*dG*dA*dT*d[5mC]*dT*dG*kA*eA*kA*e[5mC]; antisense) [Compound 1198317]
YAP1 (% UT) [4]: 74 % UT

1198887 (kG*kA*d[5mC]*dT*dA*dA*dG*dT*dA*dA*dG*kG*eT*kT*eT*k[5mC]; antisense) [Compound 1198887]
YAP1 (% UT) [9]: 71 % UT

1198439 (kA*dG*dT*dG*dT*dA*dT*dG*dT*d[5mC]*dA*kG*eA*kA*eG*kA; antisense) [Compound 1198439]
YAP1 (% UTC) [2]: 6 % UTC

1198788 (antisense kA*eA*kG*dT*dG*dT*dA*dT*dG*dT*d[5mC]*dA*eG*eA*kA*kG) [Compound 1198788]
YAP1 (% UTC) [6]: 17 % UTC

From patent US11214803B2, “Modulators of YAP1 expression” (Ionis Pharmaceuticals, Inc., priority 2019, dated 2022)
